Results: paper PMC3961306, “Comparison of the Cancer Gene Targeting and Biochemical Selectivities of All Targeted Kinase Inhibitors Approved for Clinical Use” (PLoS ONE, 2014)

How the values were obtained:
Assay in all cases: Kinase profiling in a biochemical assay panel (mobility shift assays and ELISA), %-inhibition at 1 μM; selectivity entropy
[1] = molecular target: T1, panel of more than 300 wild-type and mutant kinases (313 kinase panel) (Homo sapiens, UniProt Q96L34)
T1 sequence (Q96L34 1-752): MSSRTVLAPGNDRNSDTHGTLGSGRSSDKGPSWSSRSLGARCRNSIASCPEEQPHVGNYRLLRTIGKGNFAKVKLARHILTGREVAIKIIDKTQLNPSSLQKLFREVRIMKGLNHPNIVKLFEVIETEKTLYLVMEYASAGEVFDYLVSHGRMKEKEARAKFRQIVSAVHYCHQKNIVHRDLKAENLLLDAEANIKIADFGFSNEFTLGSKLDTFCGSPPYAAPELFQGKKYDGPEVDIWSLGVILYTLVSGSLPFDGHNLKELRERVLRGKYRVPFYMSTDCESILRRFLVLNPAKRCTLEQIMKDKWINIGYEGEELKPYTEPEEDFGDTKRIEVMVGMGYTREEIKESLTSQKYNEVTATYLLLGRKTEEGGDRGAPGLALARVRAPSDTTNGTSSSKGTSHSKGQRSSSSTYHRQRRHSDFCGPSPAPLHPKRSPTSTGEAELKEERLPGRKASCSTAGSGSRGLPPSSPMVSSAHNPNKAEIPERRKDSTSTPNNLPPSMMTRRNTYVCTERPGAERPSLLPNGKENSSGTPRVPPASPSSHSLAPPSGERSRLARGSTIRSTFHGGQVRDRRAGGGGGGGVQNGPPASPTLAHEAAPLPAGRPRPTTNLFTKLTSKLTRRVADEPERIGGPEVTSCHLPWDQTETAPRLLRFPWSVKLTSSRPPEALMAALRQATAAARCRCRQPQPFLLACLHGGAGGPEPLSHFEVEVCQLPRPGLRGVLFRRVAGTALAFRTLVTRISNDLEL

[2] = molecular target: panel of more than 300 wild-type and mutant kinases (313 kinase panel) (Homo sapiens, UniProt P22455, V550E); settings: kinase FGFR4(V550E); compound at 1 μM
[3] = molecular target: T2, panel of more than 300 wild-type and mutant kinases (313 kinase panel) (Homo sapiens, UniProt Q9NRM7)
T2 sequence (Q9NRM7 1-1088): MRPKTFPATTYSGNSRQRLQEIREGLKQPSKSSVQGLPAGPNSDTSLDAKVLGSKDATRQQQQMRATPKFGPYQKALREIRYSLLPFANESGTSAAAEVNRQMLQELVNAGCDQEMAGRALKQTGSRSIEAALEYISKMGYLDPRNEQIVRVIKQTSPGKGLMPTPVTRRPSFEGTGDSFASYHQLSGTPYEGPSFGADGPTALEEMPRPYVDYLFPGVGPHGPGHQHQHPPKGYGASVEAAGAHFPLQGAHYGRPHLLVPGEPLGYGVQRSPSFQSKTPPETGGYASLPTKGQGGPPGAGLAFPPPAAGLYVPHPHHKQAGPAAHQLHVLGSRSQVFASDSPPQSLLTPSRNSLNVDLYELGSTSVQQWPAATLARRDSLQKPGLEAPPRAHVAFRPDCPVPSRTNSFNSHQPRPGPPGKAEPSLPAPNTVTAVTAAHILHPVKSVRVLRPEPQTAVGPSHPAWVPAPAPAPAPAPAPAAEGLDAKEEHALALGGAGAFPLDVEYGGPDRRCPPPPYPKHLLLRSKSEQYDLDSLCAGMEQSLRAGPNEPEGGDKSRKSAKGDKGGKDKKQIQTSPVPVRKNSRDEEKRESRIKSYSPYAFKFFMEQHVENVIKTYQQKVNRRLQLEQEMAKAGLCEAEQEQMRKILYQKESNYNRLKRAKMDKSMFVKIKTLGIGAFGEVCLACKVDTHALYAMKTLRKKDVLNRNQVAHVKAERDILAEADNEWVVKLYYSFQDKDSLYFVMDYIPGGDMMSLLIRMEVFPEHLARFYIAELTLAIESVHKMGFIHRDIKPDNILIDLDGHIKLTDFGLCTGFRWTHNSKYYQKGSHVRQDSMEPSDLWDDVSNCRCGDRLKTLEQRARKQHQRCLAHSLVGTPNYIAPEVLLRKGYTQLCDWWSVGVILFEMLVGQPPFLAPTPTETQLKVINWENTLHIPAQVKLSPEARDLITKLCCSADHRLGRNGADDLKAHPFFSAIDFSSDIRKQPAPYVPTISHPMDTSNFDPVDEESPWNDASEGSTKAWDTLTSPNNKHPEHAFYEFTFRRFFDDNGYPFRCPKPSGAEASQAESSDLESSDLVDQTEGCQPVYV

[4] = molecular target: panel of more than 300 wild-type and mutant kinases (313 kinase panel) (Homo sapiens, UniProt Q9UM73, F1174L)
[5] = molecular target: panel of more than 300 wild-type and mutant kinases (313 kinase panel) (Homo sapiens, UniProt P42685)
[6] = kinase ALK(F1174L), 1 μM compound

| SMILES | %-inhibition of MARK4 ([1]; kinase MARK4, compound at 1 μM) | %-inhibition of FGFR4(V550E) [2] | %-inhibition of LATS2 ([3]; kinase LATS2, compound at 1 μM) | %-inhibition, ALK(F1174L) [4, 6] | %-inhibition of FRK ([5]; kinase FRK, compound at 1 μM) | %-inhibition of MARK4 ([1]; 1 µM) | %-inhibition of LATS2 ([3]; 1 µM) | %-inhibition, ALK(F1174L) ([4]; 1 µM) | %-inhibition of FRK ([5]; 1 µM) |
| --- | --- | --- | --- | --- | --- | --- | --- | --- | --- |
| Cc1ccc(C(=O)Nc2ccc(CN3CCN(C)CC3)c(C(F)(F)F)c2)cc1C#Cc1cnc2cccnn12 [ponatinib] | -2.58% | -1.79% | 16% | 5% | 100% | – | – | – | – |
| CC(C)(C)c1nc(-c2cccc(NS(=O)(=O)c3c(F)cccc3F)c2F)c(-c2ccnc(N)n2)s1 [dabrafenib] | -27% | -5% | 0.57% | – | 81% | – | – | – | – |
| COc1cc(Nc2c(C#N)cnc3cc(OCCCN4CCN(C)CC4)c(OC)cc23)c(Cl)cc1Cl [bosutinib] | – | -3.46% | 28% | 71% | 94% | – | – | – | – |
| Cc1nc(Nc2ncc(C(=O)Nc3c(C)cccc3Cl)s2)cc(N2CCN(CCO)CC2)n1 [dasatinib] | – | – | -7% | – | – | – | – | – | – |
| CO[C@H]1C[C@@H]2CC[C@@H](C)[C@@](O)(O2)C(=O)C(=O)N2CCCC[C@H]2C(=O)O[C@H]([C@H](C)C[C@@H]2CC[C@@H](OC(=O)C(C)(CO)CO)[C@H](OC)C2)CC(=O)[C@H](C)/C=C(\C)[C@@H](O)[C@@H](OC)C(=O)[C@H](C)C[C@H](C)/C=C/C=C/C=C/1C [temsirolimus] | -26% | -0.119% | -4.56% | -6% | -11% | – | – | – | – |
| C#Cc1cccc(Nc2ncnc3cc(OCCOC)c(OCCOC)cc23)c1 [erlotinib] | – | – | – | – | – | 14% | -8% | 41% | 41% |
| CCCS(=O)(=O)Nc1ccc(F)c(C(=O)c2c[nH]c3ncc(-c4ccc(Cl)cc4)cc23)c1F [vemurafenib] | 3.78% | 1.79% | -2.28% | -1.36% | 62% | – | – | – | – |
| N#CC[C@H](C1CCCC1)n1cc(-c2ncnc3[nH]ccc23)cn1 [ruxolitinib] | 53% | 5% | 37% | – | 7% | – | – | – | – |
| CC(=O)Nc1cccc(-n2c(=O)n(C3CC3)c(=O)c3c(Nc4ccc(I)cc4F)n(C)c(=O)c(C)c32)c1 [trametinib] | -15% | -3.28% | 1.87% | -7% | -3% | – | – | – | – |
| COc1cc2c(Nc3ccc(Br)cc3F)ncnc2cc1OCC1CCN(C)CC1 [vandetanib] | 2.39% | -0.358% | -8% | – | 79% | – | – | – | – |
| CS(=O)(=O)CCNCc1ccc(-c2ccc3ncnc(Nc4ccc(OCc5cccc(F)c5)c(Cl)c4)c3c2)o1 [lapatinib] | 10% | – | -8% | 1.61% | 0.586% | – | – | – | – |
| CO[C@H]1C[C@@H]2CC[C@@H](C)[C@@](O)(O2)C(=O)C(=O)N2CCCC[C@H]2C(=O)O[C@H]([C@H](C)C[C@@H]2CC[C@@H](OCCO)[C@H](OC)C2)CC(=O)[C@H](C)/C=C(\C)[C@@H](O)[C@@H](OC)C(=O)[C@H](C)C[C@H](C)/C=C/C=C/C=C/1C [everolimus] | -27% | -4.41% | -13% | -3.68% | 1.26% | – | – | – | – |
| CCN(CC)CCNC(=O)c1c(C)[nH]c(/C=C2\C(=O)Nc3ccc(F)cc32)c1C [sunitinib] | 92% | – | – | – | – | – | – | – | – |
| CNC(=O)c1cc(Oc2ccc(NC(=O)Nc3ccc(Cl)c(C(F)(F)F)c3)c(F)c2)ccn1 [regorafenib] | -16% | -0.119% | -9.47% | -7.49% | 90% | – | – | – | – |
| O=S(=O)(c1cccc2cnccc12)N1CCCNCC1 [fasudil] | -21% | -2.85% | 22% | -4% | -3% | – | – | – | – |
| C[C@@H](Oc1cc(-c2cnn(C3CCNCC3)c2)cnc1N)c1c(Cl)ccc(F)c1Cl [crizotinib] | 51% | -0.358% | -6% | – | 26% | – | – | – | – |
| Cc1cn(-c2cc(NC(=O)c3ccc(C)c(Nc4nccc(-c5cccnc5)n4)c3)cc(C(F)(F)F)c2)cn1 [nilotinib] | 12% | – | -72% | -45% | 70% | – | – | – | – |
| Cc1ccc(Nc2nccc(N(C)c3ccc4c(C)n(C)nc4c3)n2)cc1S(N)(=O)=O [pazopanib] | 9% | – | -0.465% | 26% | – | – | – | – | – |
| COc1cc2nccc(Oc3ccc(NC(=O)C4(C(=O)Nc5ccc(F)cc5)CC4)cc3)c2cc1OC [cabozantinib] | -9% | -4% | -5.61% | 6.54% | – | – | – | – | – |
